Test results: patent publication US7956039B2, “Use of amygdalin analogues for the treatment of psoriasis” (Universitat Politècnica De Catalunya, priority 2004, dated 2011)

Experiments:
Blood mononuclear cells = experiment: Monocyte chemotaxis assay in modified Boyden chamber; type: cell-based, human; conditions: for −log[A] (concentration of maximum chemotactic index): concentration [A] at which the maximum chemotactic index occurs; for Chemotactic index (maximum value): ratio of migration distance towards attractant to distance towards buffer, tested 10^−12 to 10^−7 mol/L
Protocol: Activity of Compounds (I) in Monocyte Chemotaxis Assays
Blood mononuclear cells were isolated from heparinized blood of human volunteers by Ficoll sedimentation. Chemotaxis was measured in a modified Boyden chamber using a Millipore […] that divided the upper and lower compartments. Mononuclear cells (0.5×10^6) in Krebs-Ringer phosphate (KRP) buffer were placed into the upper wells. Compounds (I) were dissolved in DMSO at 10^−2 mol/L, diluted with KRP buffer containing 1 mg/mL of bovine serum albumin and tested in the bottom compartment at a final concentration ranging from 10^−12 to 10^−7 mol/L. For an accurate comparison, the results of the different analogues were expressed as chemotactic index, which is the ratio of the distance of migration towards tested attractant and the distance towards the buffer. Migration in the presence of buffer was only […] (mean±SEM). Maximum migration for CHO-Met-Leu-Phe-OH (FMLP) occurred at 10^−8 mol/L and was […] in these experiments (chemotactic index 1.94±0.03). CD4 receptor binding for the test analogues was confirmed by blocking their chemotactic effects using low concentrations (0.1-0.2 mg/mL) of OKT4, a specific monoclonal antibody for CD4 molecules. In this test, migration response was not influenced by OKT4.

monocytes = conditions: cited from earlier work

Compound	−log[A] (concentration of maximum chemotactic index) (Blood mononuclear cells)	Chemotactic index (maximum value) (Blood mononuclear cells)	Chemotactic profile compared with peptide T (monocytes)	Concentration of maximum migration (Blood mononuclear cells)	Chemotactic index (Blood mononuclear cells; at maximum migration, 10^−8 mol/L)
N#C[C@H](O[C@@H]1O[C@H](CO[C@@H]2O[C@H](CO)[C@@H](O)[C@H](O)[C@H]2O)[C@@H](O)[C@H](O)[C@H]1O)c1ccccc1 [Amygdalin, amygdalin]	10	0.63	chemotactic profile similar to that of peptide T		
OC[C@H]1O[C@@H](OC[C@H]2O[C@@H](OCCc3ccccc3)[C@H](O)[C@@H](O)[C@@H]2O)[C@H](O)[C@@H](O)[C@@H]1O [Compound (I-17), 2-phenylethyl 6-O-(β-D-glucopyranosyl)-β-D-glucopyranoside]	9	0.70			
C#CC(O[C@@H]1O[C@H](CO[C@@H]2O[C@H](CO)[C@@H](O)[C@H](O)[C@H]2O)[C@@H](O)[C@H](O)[C@H]1O)c1ccccc1 (stereo partly drawn) [Compound (I-8), (1 RS) 1-phenyl-2-propynyl-6-O-(β-D-Glucopyranosyl)-β-D-glucopyranoside]	6	0.79			
COc1ccc(CO[C@@H]2O[C@H](CO[C@@H]3O[C@H](CO)[C@@H](O)[C@H](O)[C@H]3O)[C@@H](O)[C@H](O)[C@H]2O)cc1 [Compound (I-1), 4-methoxybenzyl 6-O-(β-D-glucopyranosyl)-β-D-Glucopyranoside]	10	0.87			
NC(=O)[C@H](O[C@@H]1O[C@H](CO[C@@H]2O[C@H](CO)[C@@H](O)[C@H](O)[C@H]2O)[C@@H](O)[C@H](O)[C@H]1O)c1ccccc1 [Compound (I-7)]	7	0.84			
OC[C@H]1O[C@@H](OC[C@H]2O[C@@H](OCc3ccccc3Cl)[C@H](O)[C@@H](O)[C@@H]2O)[C@H](O)[C@@H](O)[C@@H]1O [Compound (I-10), 2-chlorobenzyl 6-O-(β-D-gluconyranosyl)-β-D-Glucopyranoside]	10	0.94			
COc1ccc(CO[C@@H]2O[C@H](CO[C@@H]3O[C@H](CO)[C@@H](O)[C@H](O)[C@H]3O)[C@@H](O)[C@H](O)[C@H]2O)c(OC)c1 [Compound (I-11), 2.4-dimethoxybenzyl 6-O-(β-D-glucopyranosyl)-β-D-glucopyranoside]	10	0.84			
CHO-Met-Leu-Phe-OH [FMLP, reference compound]				10^−8 mol/L	1.94±0.03
O=C(O)[C@H](O[C@@H]1O[C@H](CO[C@@H]2O[C@H](CO)[C@@H](O)[C@H](O)[C@H]2O)[C@@H](O)[C@H](O)[C@H]1O)c1ccccc1 [Compound (I-6), (2R) (6-O-(β-D-glucopyranosyl)-β-D-glucopyranosyloxy)-phenylacetic acid]	9	0.85			
CCC(O[C@@H]1O[C@H](CO[C@@H]2O[C@H](CO)[C@@H](O)[C@H](O)[C@H]2O)[C@@H](O)[C@H](O)[C@H]1O)c1ccccc1 (mixture of isomers) [Compound (I-4), (1 RS)-1-phenylpropyl 6-O-(β-D-glucopyranosyl)-β-D-glucopyranoside]	6	0.75			
OC[C@H]1O[C@@H](OC[C@H]2O[C@@H](OCc3ccccc3)[C@H](O)[C@@H](O)[C@@H]2O)[C@H](O)[C@@H](O)[C@@H]1O [Compound (I-2), benzyl 6-O-(β-D-glucopyranosyl)4-D-glycopyranoside]	8	0.76			
CC(O[C@@H]1O[C@H](CO[C@@H]2O[C@H](CO)[C@@H](O)[C@H](O)[C@H]2O)[C@@H](O)[C@H](O)[C@H]1O)c1ccccc1 (stereo partly drawn) [Compound (I-3), (1 RS)-1-phenylethyl-6-O-(β-D-glucopyranosyl)-β-D-glucopyranoside]	8	0.77			
CC(C)(C)C(O[C@@H]1O[C@H](CO[C@@H]2O[C@H](CO)[C@@H](O)[C@H](O)[C@H]2O)[C@@H](O)[C@H](O)[C@H]1O)c1ccccc1 (mixture of isomers) [Compound (I-5), (1RS) 1-phenyl-2,2-dimethylpropyl-6-O-(β-D-glucopyranosyl)-β-D-glucopyranoside]	9	0.84			
